29 compounds from patent US8691818B2, “Cyclic triazo and diazo sodium channel blockers” (University Of Greenwich, priority 2008, dated 2014) can be followed below.

Broadly, the melting point is the temperature, or range, at which the solid turns liquid. A word on the IC50: it is the point on the concentration scale where inhibition reaches its midpoint. Read a low IC50 as greater potency in that assay. As usually defined, the inhibition is the drop in the measured response relative to a control, in per cent.

The test system of one data set is sodium channel. Description: [14C]guanidine flux: veratrine-evoked uptake of [14C]guanidine into rat forebrain synaptosomes (primary sodium channel assay). It is filed as biochemical. The conditions noted are these: 30° for 2½ min. The method, then:
The screening strategy is designed to select compounds with appropriate sodium channel blocking activity and low side effect liability. To this end all compounds are processed through the primary sodium channel assay (veratrine-evoked uptake of [^14C]guanidine into rat forebrain synaptosomes) and IC50 values computed from generated concentration-effect curves.
Experiments were performed using forebrain (whole brain less cerebellum/medulla) from Male Wistar rats weighing 175-250 g. All efforts were made to reduce the number of animals used and all experiments were carried out in accordance with the UK Animals (Scientific Procedures) Act, 1986 and the European Community Council Directive of 24 Nov. 1986 (86/609/EEC). Following killing of animals by stunning and decapitation, the forebrain (whole brain less cerebellum/medulla) was rapidly dissected and transferred to a weighed tube containing ice-cold 0.25M sucrose.
Synaptosomes (heavy and light mitochondrial fraction containing synaptosomes) were prepared by transferring the forebrain (of known wet weight) to a glass Potter vessel to which 9 volumes ice-cold 0.25M sucrose had been added and homogenising, using a teflon pestle, by 8 ‘up and down strokes’ of a Braun Potter S motor driven homogeniser set to 900 rpm. The resulting homogenate was centrifuged at 1036×g at 4° for 10 min and the supernatant collected. The remaining pellet was resuspended, as above, in fresh ice-cold 0.25M sucrose and the centrifugation step repeated. The supernatant fractions were pooled and centrifuged at 40,000×g (average) at 4° for 15 min and the resulting pellet resuspended in the appropriate assay buffer at a concentration of 20-25 mg wet weight per ml appropriate assay buffer.
Both assays were carried out using 14 ml polypropylene test tubes to which a range of concentrations of the compounds under test were added.
The [^14C] guanidinine flux assay was measured using the method of Pauwels P J et al (1986) but carried out@30° for 2½ min.
(§1) Data are presented as mean±sem of number of experiments indicated in brackets.

Data set [1] concerns the target T1, DiHydroFolate Reductase (DHFR) (Rattus norvegicus, UniProt Q920D2).
T1 construct: from tissue; host or cells: rat liver homogenate supernatant
T1 sequence (Q920D2 1-187): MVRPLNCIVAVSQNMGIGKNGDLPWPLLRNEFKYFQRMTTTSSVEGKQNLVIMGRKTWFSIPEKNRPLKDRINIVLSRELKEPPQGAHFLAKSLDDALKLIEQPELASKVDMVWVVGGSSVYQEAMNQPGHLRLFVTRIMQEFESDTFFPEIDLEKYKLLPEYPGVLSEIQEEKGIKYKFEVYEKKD
Description: Inhibition of binding of [3H]methotrexate to rat liver homogenate supernatant. The conditions noted are these: for inhibition at 125 µM: read-out: [3H]mtx binding (% inhibition @ 125 μM); for inhibition at 99 µM: read-out: [3H]mtx binding % inhibition (* 99 μM, *** uses fresh batch of supernatant), 99 μM, fresh batch of supernatant. As to the method: All steps were carried out at 4° (or on ice). Freshly dissected rat liver was dissected into 0.25M ice-cold Sucrose and subsequently homogenised (U-turrax) in 50 mM pH 6.0 phosphate buffer (10 ml/g tissue) containing 15 mM Dithiothreitol. The resulting homogenate was centrifuged@47,500×g for 20 min and supernatant (filtered through cotton wool to remove fatty lumps) stored @ −80° before use (Rothenberg et al).
Inhibition of the binding of [^3H]methotrexate to rat liver homogenate supernatant fractions were carried out essentially as described by Arons et al, 1975.
as §1

Molecules are shown by their SMILES. Counter-ions that a name gives are not always drawn. Where only a bound is given, the exact number is not on record here.

The compound `CCn1nc(-c2ccc3ccccc3c2)c(N)nc1=N` (as salt: methanesulfonate) [CEN-75, 5(3)-Amino-6-(2-naphthyl)-2,3(2,5)-dihydro-3(5)-imino-2-ethyl-1,2,4-triazine methanesulfonate] yielded a melting point of 175 to 177 °C.
Same read-out and setting: with `Cn1nc(-c2cccs2)c(N)nc1=N` (as salt: methanesulfonate) [CEN-61, 5(3)-Amino-6-(2-thienyl)-2,3(2,5)-dihydro-3(5)-imino-2-methyl-1,2,4-triazine methanesulfonate] the figure was 201 to 202 °C; with `Cn1nc(C(C)(c2ccccc2)c2ccccc2)c(N)nc1=N` (as salt: methanesulfonate) [CEN-149, 5(3)-Amino-6-(1,1-diphenylethyl)-2,3(2,5)-dihydro-3(5)-imino-2-methyl-1,2,4-triazine methanesulfonate], 240 to 242 °C; with `Cn1nc(-c2cc(Br)c(Br)o2)c(N)nc1=N` (as salt: methanesulfonate) [CEN-135, 5(3)-Amino-6-[2-(4,5-dibromofuryl)]-2,3(2,5)-dihydro-3(5)-imino-2-methyl-1,2,4-triazine methanesulfonate], 183 to 185 °C.
On the same count and under the same terms, the result for `CCn1nc(-c2sc(Cl)c(Cl)c2Cl)c(N)nc1=N` (as salt: methanesulfonate) [CEN-195, 5(3)-Amino-6-{2-(3,4,5-trichloro)thienyl}-2,3(2,5)-dihydro-3(5)-imino-2-ethyl-1,2,4-triazine methanesulfonate] reads 202 to 204 °C; that for `CCn1nc(-c2cc(OC)c(OC)c(OC)c2)c(N)nc1=N` (as salt: methanesulfonate) [CEN-119, 5(3)-Amino-6-(3,4,5-trimethoxyphenyl)-2,3(2,5)-dihydro-3(5)-imino-2-ethyl-1,2,4-triazine methanesulfonate], 305 to 306 °C.
On to `Cn1nc(-c2cccc3c2CCCC3)c(N)nc1=N` (as salt: methanesulfonate) [CEN-120, 5(3)-Amino-6-[1-(5,6,7,8-tetrahydronaphthyl)]-2,3(2,5)-dihydro-3(5)-imino-2-methyl-1,2,4-triazine methanesulfonate], for which the melting point is 236 to 237 °C.
The same measure, in the same setting: the result for `Cn1nc(-c2ccc(Oc3ccccc3)cc2)c(N)nc1=N` (as salt: methanesulfonate) [CEN-102, 5(3)-Amino-6-(4-phenoxyphenyl)-2,3(2,5)-dihydro-3(5)-imino-2-methyl-1,2,4-triazine methanesulfonate] reads 174 to 176 °C.
`CCn1nc(-c2cccc(C(F)(F)F)c2Cl)c(N)nc1=N` (as salt: methanesulphonate) [CEN-178, 5(3)-Amino-6-(2-chloro-3-trifluoromethyphenyl)-2,3(2,5)-dihydro-3(5)-imino-2-ethyl-1,2,4-triazine methanesulphonate] registered a melting point of 207 to 209 °C.
Turning to `Cn1nc(-c2cc(C(F)(F)F)cc(Cl)c2F)c(N)nc1=N` (as salt: mesylate) [CEN-202, 5(3)-Amino-6-(3-chloro-2-fluoro-5-trifluoromethyphenyl)-2,3(2,5)-dihydro-3(5)-imino-2-methyl-1,2,4-triazine mesylate], the melting point is 277 to 279 °C.
As to `Cn1nc(-c2ccccc2OC(F)F)c(N)nc1=N` (as salt: methanesulfonate) [CEN-146, 5(3)-Amino-6-(2-difluoromethoxyphenyl)-2,3(2,5)-dihydro-3(5)-imino-2-methyl-1,2,4-triazine methanesulfonate], the melting point lay within 213 to 215 °C.
The same measure, in the same setting: the result for `CCn1nc(-c2cc(C(C)(C)C)cc(C(C)(C)C)c2)c(N)nc1=N` (as salt: methanesulphonate) [CEN-189, 5(3)-Amino-6-(3,5 bis-tert-butylphenyl)-2,3(2,5)-dihydro-3(5)-imino-2-ethyl-1,2,4-triazine methanesulphonate] reads 258 to 261 °C.
Still for that read-out and setting: with `Cn1nc(-c2cccc(-c3ccccc3)c2)c(N)nc1=N` (as salt: methanesulfonate) [CEN-161, 5(3)-Amino-6-(3-biphenyl)-2,3(2,5)-dihydro-3(5)-imino-2-methyl-1,2,4-triazine methanesulfonate] the figure was 180 to 181 °C; with `Nc1nnc(-c2ccccc2OC(F)(F)F)c(N)n1` [CEN-56, 3,5-Diamino-6-(2-trifluoromethoxyphenyl)-1,2,4-triazine], 148 to 150 °C; with `Cn1nc(-c2cc(C(F)(F)F)cc(C(F)(F)F)c2)c(N)nc1=N` (as salt: methanesulfonate) [CEN-99, 5(3)-Amino-6-[3,5-(bis-trifluoromethyl)phenyl]-2,3(2,5)-dihydro-3(5)-imino-2-methyl-1,2,4-triazine methanesulfonate], 179 to 181 °C.
For `COc1cc(-c2nn(C)c(=N)nc2N)cc(OC)c1OC` (as salt: methanesulfonate) [CEN-101, 5(3)-Amino-6-(3,4,5-trimethoxyphenyl)-2,3(2,5)-dihydro-3(5)-imino-2-methyl-1,2,4-triazine methanesulfonate], the melting point lay within 258 to 259 °C.
Same read-out and setting: the result for `Cn1nc(-c2sc(Cl)c(Cl)c2Cl)c(N)nc1=N` (as salt: methanesulfonate) [CEN-194, 5(3)-Amino-6-{2-(3,4,5-trichloro)thienyl}-2,3(2,5)-dihydro-3(5)-imino-2-methyl-1,2,4-triazine methanesulfonate] reads 192 to 194 °C.
`Nc1nnc(-c2cccnc2Oc2ccccc2)c(N)n1` [CEN-167, 3,5-Diamino-6-[3-(2-phenoxypyidyl)]-1,2,4-triazine] had an IC50 in the data set with sodium channel greater than 2000 µM. In data set [1], the inhibition at 125 µM was -2%.
The corresponding values for `C/C(=C\c1ccccc1)c1nnc(N)nc1N` [CEN-112, 3,5-Diamino-6-[E-2-(3-phenyl)propenyl]-1,2,4-triazine] are 1000 µM and 84%.
For `Cn1nc(-c2ccc(Oc3ccc(-c4nn(C)c(=N)nc4N)cc3)cc2)c(N)nc1=N` [CEN-116] the same measures were 955 µM and 70%.
The corresponding values for `Nc1cnc(-c2cccc3c2OC(F)(F)O3)c(N)n1` [CEN-89, 2,6-Diamino-3-(2,2-difluorobenzodioxol-4-yl)pyrazine] are 724 µM and 101%.
In the data set with sodium channel, `CCn1nc(-c2sc(Cl)c(Cl)c2Cl)c(N)nc1=N` [CEN-195, 5(3)-Amino-6-{2-(3,4,5-trichloro)thienyl}-2,3(2,5)-dihydro-3(5)-imino-2-ethyl-1,2,4-triazine methanesulfonate] showed an IC50 of 4 µM. For the same compound, in data set [1], the inhibition at 99 µM is -2%.
In the data set on sodium channel (listed as 158), `COc1ccc2c(OC)cccc2c1-c1nnc(N)nc1N` [CEN-158] registered an IC50 greater than 1000 µM. In addition, the “[3H]mtx binding (% inhibition @ 125 μM)” value in data set [1] (listed as 158, 125 µM) is −1%.
In the data set with sodium channel, `C[n+]1cc(N)nc(N)c1-c1cc(Cl)cc(Cl)c1Cl` [CEN-90] gave an IC50 of 97.7 µM. For the same compound, the inhibition at 125 µM in data set [1] turned out to be 53%.
For `CCCC(CCC)c1nnc(N)nc1N` [CEN-170, 3,5-Diamino-6-(1-propylbutyl)-1,2,4-triazine tosylate] the same measures were 263 µM and 29%.
The corresponding values for `Nc1nnc(-c2ccc3ccccc3n2)c(N)n1` [CEN-173, 3,5-Diamino-6-(2-quinolyl)-1,2,4-triazine] are 159 µM and 34%.
`Nc1nnc(-c2cccc(OCc3ccc(C(F)(F)F)cc3C(F)(F)F)c2)c(N)n1` [CEN-171, 3,5-Diamino-6-[3-(2,4-trifluoromethylbenzyloxy)phenyl]-1,2,4-triazine] showed an IC50 in the data set on sodium channel of 2 µM. Also, the “[3H]mtx binding (% inhibition @ 125 μM)” value in data set [1] came out at 91%.
Regarding `Nc1nnc(-c2cccnc2Cl)c(N)n1` [CEN-164, 3,5-Diamino-6-[3-(2-chloropyidyl)]-1,2,4-triazine], the IC50 in the data set with sodium channel worked out at 692 µM. In data set [1], the inhibition at 125 µM worked out at 0%.
In the case of `Nc1nnc(-c2ccco2)c(-c2ccco2)n1` [CEN-196, 3-Amino-5,6-bis(2-furyl)-1,2,4-triazine], half-maximal inhibition in the data set on sodium channel (IC50) was put at 912 µM. For the same compound, the inhibition at 99 µM in data set [1] turned out to be 41%.
